The values below come from ChEMBL document CHEMBL1130694, “Selective chemical modifications of polymyxin B” (Bioorg Med Chem Lett, 1998).

What is called LD50 is the dose expected to kill half of the subjects tested. Lower therefore signals a more toxic substance. For orientation: MIC means the least concentration at which growth counts as inhibited.

Molecules are shown by their SMILES. ≈ marks a conversion by molar mass, not a printed value.

The nature of series [1]: Compound was tested for acute toxicity in mice upon intravenous administration. To be noted: mouse, in vivo. The format is organism-based.
For series [2], the species on record is Mus musculus. In words: Compound was tested for protection against Pseudomonas infection in mice. In kind it is functional. Particulars: read-out: PD50.
The test system of series [3] is Pseudomonas. In words: Compound was tested for antibacterial activity against Pseudomonas organism. The format is functional.
Series [4] relates to Escherichia coli. In words: Compound was tested for antibacterial activity against Escherichia coli organism. In kind it is functional.
The nature of series [5]: Ratio of LD50 to PD50 was evaluated. In kind it is ADME, organism-based. To be noted: mouse, in vivo.
In series [6] the test system is Staphylococcus. As to the kind of experiment: Compound was tested for antibacterial activity against Staphylococcus organism. In kind it is functional.

On to `CC(C)CCCCC(=O)N[C@@H](CCN)C(=O)N[C@H](C(=O)N[C@@H](CCN)C(=O)N[C@H]1CCNC(=O)[C@H]([C@@H](C)O)NC(=O)[C@H](CCNC(=O)[C@@H](N)CCCN=C(N)N)NC(=O)[C@H](CCN)NC(=O)[C@H](CC(C)C)NC(=O)[C@@H](Cc2ccccc2)NC(=O)[C@H](CCN)NC1=O)[C@@H](C)O`, for which, in series [1], the LD50 amounted to 15 mg/kg. In addition, in series [2], the ED50 was 0.25 mg/kg. Further, the MIC was found to be 0.03 µg/mL (≈ 0.0223 µM) in series [3], 0.16 µg/mL (≈ 0.119 µM) in series [4] and 2 µg/mL (≈ 1.49 µM) in series [6]. Moreover, the selectivity ratio in series [5] stood at 60.
The compound `CC(C)CCCCC(=O)N[C@@H](CCN)C(=O)N[C@H](C(=O)N[C@@H](CCN)C(=O)N[C@H]1CCNC(=O)[C@H]([C@@H](C)O)NC(=O)[C@H](CCNC(=O)[C@@H](N)C[C@H](CCN)C(=O)OCc2ccccc2)NC(=O)[C@H](CCN)NC(=O)[C@H](CC(C)C)NC(=O)[C@@H](Cc2ccccc2)NC(=O)[C@H](CCN)NC1=O)[C@@H](C)O` yielded an LD50 in series [1] of 13 mg/kg. Also, the ED50 in series [2] is 2 mg/kg. Besides, the minimum inhibitory concentration (MIC) in series [3] was determined as 0.087 µg/mL (≈ 0.0599 µM); in series [4], 0.146 µg/mL (≈ 0.101 µM); in series [6], 0.445 µg/mL (≈ 0.307 µM). Besides, the selectivity ratio in series [5] was determined as 6.5.
On to `CC(C)CCCCC(=O)N[C@@H](CCN)C(=O)N[C@H](C(=O)N[C@@H](CCN)C(=O)N[C@H]1CCNC(=O)[C@H]([C@@H](C)O)NC(=O)[C@H](CCNC(=O)[C@@H](N)Cc2ccc(O)cc2)NC(=O)[C@H](CCN)NC(=O)[C@H](CC(C)C)NC(=O)[C@@H](Cc2ccccc2)NC(=O)[C@H](CCN)NC1=O)[C@@H](C)O`, for which the LD50 in series [1] worked out at 19 mg/kg. Besides, the ED50 in series [2] came out at 2.2 mg/kg. Moreover, the MIC in series [3] was determined as 0.073 µg/mL (≈ 0.054 µM); in series [4], 0.175 µg/mL (≈ 0.129 µM); in series [6], 2.2 µg/mL (≈ 1.63 µM). Further, the selectivity ratio in series [5] worked out at 8.6.
